Assay results: patent publication US12662479B2 (Foghorn Therapeutics Inc., priority 2020, dated 2026)

Experiments:
[1] = target: T1, HiBit-BRM fusion protein (Homo sapiens, UniProt P51531); test: HiBiT-BRM cell-based degradation assay (Nano-Glo HiBiT Lytic Detection, 24 h); conditions: HeLa cells expressing HiBiT-BRM; for DC50: read-out: BRM HiBit Degradation IC50; for BRM HiBit Degradation Maximum measured: top dose 30 μM
T1 construct: expressed in transfected cells
Method in brief: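 HeLa cells stably expressing HiBiT-BRM were treated for 24 h with compounds (10-point 3-fold dilutions, 30 μM final top dose, in duplicate). HiBiT was detected by lytic LgBiT complementation luminescence. % degradation was normalized to DMSO (high control) and 2 μM of a reference BRM/BRG1 degrader (low control).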

[2] = target: T2, HiBit-BRG1 fusion protein (Homo sapiens, UniProt P51532); test: HiBiT-BRG1 cell-based degradation assay (Nano-Glo HiBiT Lytic Detection, 24 h); conditions: HeLa cells expressing HiBit-BRG1 and LgBit; for DC50: read-out: BRG1 HiBit Degradation IC50; for Dmax: HeLa, top dose 30 μM, read-out: BRG1 HiBit Degradation Maximum measured
T2 construct: expressed in transfected cells
T2 sequence (P51532 whole entry, the tested form may be a part): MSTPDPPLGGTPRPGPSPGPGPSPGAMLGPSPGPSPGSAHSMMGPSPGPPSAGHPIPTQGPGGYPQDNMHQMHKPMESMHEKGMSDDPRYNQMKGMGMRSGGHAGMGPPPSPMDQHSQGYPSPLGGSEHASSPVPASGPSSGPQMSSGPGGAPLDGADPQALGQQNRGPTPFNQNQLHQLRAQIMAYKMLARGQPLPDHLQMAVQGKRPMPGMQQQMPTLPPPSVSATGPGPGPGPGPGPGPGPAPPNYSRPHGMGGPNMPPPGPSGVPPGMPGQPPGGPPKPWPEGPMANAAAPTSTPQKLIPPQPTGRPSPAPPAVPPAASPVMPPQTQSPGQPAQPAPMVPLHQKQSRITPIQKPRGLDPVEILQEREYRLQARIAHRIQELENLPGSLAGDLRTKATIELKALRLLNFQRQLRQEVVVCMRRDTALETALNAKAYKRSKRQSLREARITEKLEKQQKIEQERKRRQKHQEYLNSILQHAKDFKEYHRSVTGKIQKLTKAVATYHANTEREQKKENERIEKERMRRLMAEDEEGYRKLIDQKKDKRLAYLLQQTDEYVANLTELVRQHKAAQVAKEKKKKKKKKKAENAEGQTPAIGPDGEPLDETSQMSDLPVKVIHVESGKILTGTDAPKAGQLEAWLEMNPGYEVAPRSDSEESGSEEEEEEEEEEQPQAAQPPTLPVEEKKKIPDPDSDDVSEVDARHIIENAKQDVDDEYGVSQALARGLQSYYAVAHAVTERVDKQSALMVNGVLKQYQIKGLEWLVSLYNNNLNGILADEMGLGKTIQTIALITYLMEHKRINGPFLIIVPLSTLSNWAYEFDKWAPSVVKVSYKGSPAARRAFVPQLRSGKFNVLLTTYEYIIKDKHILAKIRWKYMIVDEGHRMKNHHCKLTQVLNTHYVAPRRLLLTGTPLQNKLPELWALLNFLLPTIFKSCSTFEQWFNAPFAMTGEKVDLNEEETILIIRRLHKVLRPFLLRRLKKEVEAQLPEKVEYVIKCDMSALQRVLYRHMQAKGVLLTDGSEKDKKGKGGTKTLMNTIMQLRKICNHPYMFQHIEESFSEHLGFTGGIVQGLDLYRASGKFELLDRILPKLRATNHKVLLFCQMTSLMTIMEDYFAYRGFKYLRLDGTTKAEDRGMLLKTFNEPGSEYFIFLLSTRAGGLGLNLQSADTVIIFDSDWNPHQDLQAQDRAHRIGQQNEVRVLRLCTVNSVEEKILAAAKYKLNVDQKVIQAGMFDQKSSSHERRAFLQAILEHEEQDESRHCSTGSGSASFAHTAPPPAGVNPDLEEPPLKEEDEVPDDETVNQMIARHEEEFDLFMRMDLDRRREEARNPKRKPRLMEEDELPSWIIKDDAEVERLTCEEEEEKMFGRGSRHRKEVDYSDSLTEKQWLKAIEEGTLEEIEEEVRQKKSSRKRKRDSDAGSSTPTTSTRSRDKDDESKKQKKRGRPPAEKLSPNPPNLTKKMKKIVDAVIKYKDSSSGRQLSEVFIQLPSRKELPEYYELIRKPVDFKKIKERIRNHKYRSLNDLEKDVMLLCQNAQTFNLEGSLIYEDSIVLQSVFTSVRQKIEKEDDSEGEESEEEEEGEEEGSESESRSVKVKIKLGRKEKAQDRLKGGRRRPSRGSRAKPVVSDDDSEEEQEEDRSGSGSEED
Method in brief: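 Stable HeLa line expressing HiBiT-BRG1 and LgBiT, seeded at 5000 cells/well; luminescence read after lytic Nano-Glo HiBiT reagent and 10 min shaking at RT. % degradation normalised between DMSO (high control) and 2 μM reference BRM/BRG1 degrader (low control).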

T1 sequence (P51531 whole entry, the tested form may be a part): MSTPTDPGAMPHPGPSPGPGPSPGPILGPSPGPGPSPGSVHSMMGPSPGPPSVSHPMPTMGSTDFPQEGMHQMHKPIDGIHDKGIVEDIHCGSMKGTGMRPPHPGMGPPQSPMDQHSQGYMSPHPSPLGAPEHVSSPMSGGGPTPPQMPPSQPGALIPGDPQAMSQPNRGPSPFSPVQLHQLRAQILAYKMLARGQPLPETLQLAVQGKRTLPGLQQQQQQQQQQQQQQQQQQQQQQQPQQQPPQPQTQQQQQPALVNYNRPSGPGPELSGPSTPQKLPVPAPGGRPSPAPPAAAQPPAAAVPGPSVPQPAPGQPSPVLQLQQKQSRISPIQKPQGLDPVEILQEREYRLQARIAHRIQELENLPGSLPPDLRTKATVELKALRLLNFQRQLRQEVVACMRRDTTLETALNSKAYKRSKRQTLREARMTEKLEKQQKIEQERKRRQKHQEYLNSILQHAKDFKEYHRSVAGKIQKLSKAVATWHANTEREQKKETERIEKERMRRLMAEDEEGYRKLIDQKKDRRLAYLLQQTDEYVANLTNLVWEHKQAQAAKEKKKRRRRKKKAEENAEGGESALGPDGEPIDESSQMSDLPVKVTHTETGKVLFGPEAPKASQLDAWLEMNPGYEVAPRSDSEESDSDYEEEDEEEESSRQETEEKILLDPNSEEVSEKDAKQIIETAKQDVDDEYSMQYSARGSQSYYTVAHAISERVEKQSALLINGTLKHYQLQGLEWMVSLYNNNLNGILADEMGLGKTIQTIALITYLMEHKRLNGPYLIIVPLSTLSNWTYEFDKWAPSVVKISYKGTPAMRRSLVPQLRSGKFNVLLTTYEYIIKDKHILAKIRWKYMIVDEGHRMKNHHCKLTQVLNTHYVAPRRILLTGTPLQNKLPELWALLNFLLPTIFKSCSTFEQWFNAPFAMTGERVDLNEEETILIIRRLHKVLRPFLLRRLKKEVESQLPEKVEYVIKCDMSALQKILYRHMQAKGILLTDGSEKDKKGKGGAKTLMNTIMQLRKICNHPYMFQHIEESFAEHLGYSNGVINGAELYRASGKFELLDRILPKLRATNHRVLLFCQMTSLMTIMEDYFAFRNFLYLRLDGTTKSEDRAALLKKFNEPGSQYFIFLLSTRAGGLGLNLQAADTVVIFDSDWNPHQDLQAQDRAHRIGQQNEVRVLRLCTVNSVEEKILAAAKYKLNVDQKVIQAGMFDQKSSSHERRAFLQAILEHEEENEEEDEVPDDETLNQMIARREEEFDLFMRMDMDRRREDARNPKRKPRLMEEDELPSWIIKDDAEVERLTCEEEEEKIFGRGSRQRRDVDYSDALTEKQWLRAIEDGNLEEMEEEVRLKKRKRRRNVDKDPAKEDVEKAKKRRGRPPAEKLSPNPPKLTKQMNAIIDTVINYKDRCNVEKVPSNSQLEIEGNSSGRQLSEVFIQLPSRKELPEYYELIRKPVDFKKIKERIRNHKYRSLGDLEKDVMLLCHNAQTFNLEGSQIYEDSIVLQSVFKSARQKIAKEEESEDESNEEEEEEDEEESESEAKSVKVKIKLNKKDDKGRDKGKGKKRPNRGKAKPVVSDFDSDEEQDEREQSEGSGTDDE

With `Cc1ncsc1-c1ccc(CNC(=O)[C@@H]2C[C@@H](O)CN2C(=O)[C@@H](NC(=O)CCCCCCCCCCC(=O)NCc2cccc(-c3cccc(-c4csc(NC(=O)CNC(=O)c5ccn(S(C)(=O)=O)c5)n4)c3)c2)C(C)(C)C)cc1` [Compound 119, N1-((S)-1-((2S,4R)-4-hydroxy-2-((4-(4-methylthiazol-5-yl)benzyl)carbamoyl)pyrrolidin-1-yl)-3,3-dimethyl-1-oxobutan-2-yl)-N12-((3′-(2-(2-(1-(methylsulfonyl)-1H-pyrrole-3-carboxamido)acetamido)thiazol-4-yl)-[1,1′-biphenyl]-3-yl)methyl)dodecanediamide] the DC50 [1] was 0.1 to 1 µM, the “BRM HiBit Degradation Maximum measured” value [1] was “A (‘A’ = Maximum degradation >75%)” and the DC50 [2] was 0.1 to 1 µM. The Dmax [2] was over 75%.
`Cc1ncsc1-c1ccc(CNC(=O)[C@@H]2C[C@@H](O)CN2C(=O)[C@@H](NC(=O)CCCCCCCCCCCCCCC(=O)NCc2cccc(-c3cccc(-c4csc(NC(=O)CNC(=O)c5ccn(S(C)(=O)=O)c5)n4)c3)c2)C(C)(C)C)cc1` [Compound 120, N1-((S)-1-((2S,4R)-4-hydroxy-2-((4-(4-methylthiazol-5-yl)benzyl)carbamoyl)pyrrolidin-1-yl)-3,3-dimethyl-1-oxobutan-2-yl)-N16-((3′-(2-(2-(1-(methylsulfonyl)-1H-pyrrole-3-carboxamido)acetamido)thiazol-4-yl)-[1,1′-biphenyl]-3-yl)methyl)hexadecanediamide] was tested, and the DC50 [1] was over 10 µM, the “BRM HiBit Degradation Maximum measured” value [1] was “C (‘C’ = Maximum degradation <50%)” and the DC50 [2] was over 10 µM. For the same compound, the Dmax [2] was under 50%.
With `Cc1ncsc1-c1ccc(CNC(=O)[C@@H]2C[C@@H](O)CN2C(=O)[C@@H](NC(=O)COCCOCCOCCOCC(=O)NCc2cccc(-c3cccc(-c4csc(NC(=O)CNC(=O)c5ccn(S(C)(=O)=O)c5)n4)c3)c2)C(C)(C)C)cc1` [Compound 121, N1-((S)-1-((2S,4R)-4-hydroxy-2-((4-(4-methylthiazol-5-yl)benzyl)carbamoyl)pyrrolidin-1-yl)-3,3-dimethyl-1-oxobutan-2-yl)-N14-((3′-(2-(2-(1-(methylsulfonyl)-1H-pyrrole-3-carboxamido)acetamido)thiazol-4-yl)-[1,1′-biphenyl]-3-yl)methyl)-3,6,9,12-tetraoxatetradecane-1,14-diamide] the DC50 [1] was 1 to 10 µM, the “BRM HiBit Degradation Maximum measured” value [1] was “B (‘B’ = Maximum degradation ≥50% and ≤75%)” and the DC50 [2] was 1 to 10 µM. For the same compound, the Dmax [2] was 50 to 75%.
`Cc1cc(C(=O)NCC(=O)Nc2nc(-c3cccc(-c4ccnc(N(C)CC(=O)NCCOCCOCCNc5cccc6c5C(=O)N(C5CCC(=O)NC5=O)C6=O)c4)c3)cs2)cn1S(C)(=O)=O` (stereo not shown) [Compound 122, N-(2-((4-(3-(2-((2-((2-(2-(2-((2-(2,6-dioxopiperidin-3-yl)-1,3-dioxoisoindolin-4-yl)amino)ethoxy)ethoxy)ethyl)amino)-2-oxoethyl)(methyl)amino)pyridin-4-yl)phenyl)thiazol-2-yl)amino)-2-oxoethyl)-5-methyl-1-(methylsulfonyl)-1H-pyrrole-3-carboxamide] was tested, and the DC50 [1] was over 10 µM, the “BRM HiBit Degradation Maximum measured” value [1] was “C (‘C’ = Maximum degradation <50%)” and the DC50 [2] was over 10 µM. For the same compound, the Dmax [2] was under 50%.
For `Cc1c(C(=O)NCC(=O)Nc2nc(-c3cccc(-c4ccnc(N(C)CC(=O)N5CCC(C6CCN(C(=O)COc7cccc8c7C(=O)N(C7CCC(=O)NC7=O)C8=O)CC6)CC5)c4)c3)cs2)cn(S(C)(=O)=O)c1C` (stereo not shown) [Compound 123, N-[2-[[4-[3-[2-[[2-[4-[1-[2-[2-(2,6-dioxo-3-piperidyl)-1,3-dioxo-isoindolin-4-yl]oxyacetyl]-4-piperidyl]-1-piperidyl]-2-oxo-ethyl]-methyl-amino]-4-pyridyl]phenyl]thiazol-2-yl]amino]-2-oxo-ethyl]-4,5-dimethyl-1-methylsulfonyl-pyrrole-3-carboxamide], the DC50 [1] was over 10 µM, the “BRM HiBit Degradation Maximum measured” value [1] was “C (‘C’ = Maximum degradation <50%)” and the DC50 [2] was over 10 µM. It also gave a Dmax [2] of under 50%.
`Cc1ncsc1-c1ccc(CNC(=O)[C@@H]2C[C@@H](O)CN2C(=O)[C@@H](NC(=O)CCCCCCCCCCCCCCCC(=O)NCc2cccc(-c3cccc(-c4csc(NC(=O)CNC(=O)c5ccn(S(C)(=O)=O)c5)n4)c3)c2)C(C)(C)C)cc1` [Compound 124, N1-((S)-1-((2S,4R)-4-hydroxy-2-((4-(4-methylthiazol-5-yl)benzyl)carbamoyl)pyrrolidin-1-yl)-3,3-dimethyl-1-oxobutan-2-yl)-N17-((3′-(2-(2-(1-(methylsulfonyl)-1H-pyrrole-3-carboxamido)acetamido)thiazol-4-yl)-[1,1′-biphenyl]-3-yl)methyl)heptadecanediamide] was tested, and the DC50 [1] was over 10 µM, the “BRM HiBit Degradation Maximum measured” value [1] was “C (‘C’ = Maximum degradation <50%)” and the DC50 [2] was over 10 µM. The Dmax [2] was under 50%.
In the case of `Cc1cc(C(=O)NCC(=O)Nc2nc(-c3cccc(-c4ccnc(N(C)CC(=O)NCCCCCNc5cccc6c5C(=O)N(C5CCC(=O)NC5=O)C6=O)c4)c3)cs2)cn1S(C)(=O)=O` (stereo not shown) [Compound 125, N-(2-((4-(3-(2-((2-((5-((2-(2,6-dioxopiperidin-3-yl)-1,3-dioxoisoindolin-4-yl)amino)pentyl)amino)-2-oxoethyl)(methyl)amino)pyridin-4-yl)phenyl)thiazol-2-yl)amino)-2-oxoethyl)-5-methyl-1-(methylsulfonyl)-1H-pyrrole-3-carboxamide], the DC50 [1] is reported as over 10 µM, the “BRM HiBit Degradation Maximum measured” value [1] is reported as “C (‘C’ = Maximum degradation <50%)” and the DC50 [2] is reported as over 10 µM. For the same compound, the Dmax [2] was under 50%.
In the case of `Cc1ncsc1-c1ccc(CNC(=O)[C@@H]2C[C@@H](O)CN2C(=O)[C@@H](NC(=O)CCCCCCCCCCCCCC(=O)NCc2cccc(-c3cccc(-c4csc(NC(=O)CNC(=O)c5ccn(S(C)(=O)=O)c5)n4)c3)c2)C(C)(C)C)cc1` [Compound 126, N′-[(1S)-1-[(2S,4R)-4-hydroxy-2-[[4-(4-methylthiazol-5-yl)phenyl]methylcarbamoyl]pyrrolidine-1-carbonyl]-2,2-dimethyl-propyl]-N-[[3-[3-[2-[[2-[(1-methylsulfonylpyrrole-3-carbonyl)amino]acetyl]amino]thiazol-4-yl]phenyl]phenyl]methyl]pentadecanediamide], the DC50 [1] is reported as 0.1 to 1 µM, the “BRM HiBit Degradation Maximum measured” value [1] is reported as “B (‘B’ = Maximum degradation ≥50% and ≤75%)” and the DC50 [2] is reported as 0.1 to 1 µM. The Dmax [2] was 50 to 75%.
`CS(=O)(=O)n1ccc(C(=O)NCC(=O)Nc2nc(-c3cccc(-c4ccnc(C5(C(=O)NCCOCCOCCNC(=O)COc6cccc7c6C(=O)N(C6CCC(=O)NC6=O)C7=O)CC5)c4)c3)cs2)c1` (stereo not shown) [Compound 128] was tested, and the DC50 [1] was over 10 µM, the “BRM HiBit Degradation Maximum measured” value [1] was “C (‘C’ = Maximum degradation <50%)” and the DC50 [2] was over 10 µM. For the same compound, the Dmax [2] was under 50%.
In the case of `CN1C(=O)CCC(N2C(=O)c3cccc(OCC(=O)NCCCCCCCCNC(=O)C4(c5cc(-c6cccc(-c7csc(NC(=O)CNC(=O)c8ccn(S(C)(=O)=O)c8)n7)c6)ccn5)CC4)c3C2=O)C1=O` (stereo not shown) [Compound 129, N-[2-[[4-[3-[2-[1-[8-[[2-[2-(1-methyl-2,6-dioxo-3-piperidyl)-1,3-dioxo-isoindolin-4-yl]oxyacetyl]amino]octylcarbamoyl]cyclopropyl]-4-pyridyl]phenyl]thiazol-2-yl]amino]-2-oxo-ethyl]-1-methylsulfonyl-pyrrole-3-carboxamide], the DC50 [1] is reported as over 10 µM, the “BRM HiBit Degradation Maximum measured” value [1] is reported as “C (‘C’ = Maximum degradation <50%)” and the DC50 [2] is reported as over 10 µM. The Dmax [2] was under 50%.
With `Cc1cc(C(=O)NCC(=O)Nc2nc(-c3cccc(-c4ccnc(N(C)CC(=O)N5CCC(C6CCN(C(=O)COc7cccc8c7C(=O)N(C7CCC(=O)NC7=O)C8=O)CC6)CC5)c4)c3)cs2)cn1S(C)(=O)=O` (stereo not shown) [Compound 130, N-[2-[[4-[3-[2-[[2-[4-[1-[2-[2-(2,6-dioxo-3-piperidyl)-1,3-dioxo-isoindolin-4-yl]oxyacetyl]-4-piperidyl]-1-piperidyl]-2-oxo-ethyl]-methyl-amino]-4-pyridyl]phenyl]thiazol-2-yl]amino]-2-oxo-ethyl]-5-methyl-1-methylsulfonyl-pyrrole-3-carboxamide] the DC50 [1] was over 10 µM, the “BRM HiBit Degradation Maximum measured” value [1] was “C (‘C’ = Maximum degradation <50%)” and the DC50 [2] was over 10 µM. For the same compound, the Dmax [2] was under 50%.
For `Cc1cc(C(=O)NCC(=O)Nc2nc(-c3cccc(-c4ccnc(N(C)CC(=O)NCCCCCCCCNC(=O)COc5cccc6c5C(=O)N(C5CCC(=O)NC5=O)C6=O)c4)c3)cs2)cn1S(C)(=O)=O` (stereo not shown) [Compound 131, N-(2-((4-(3-(2-((2-((8-(2-((2-(2,6-dioxopiperidin-3-yl)-1,3-dioxoisoindolin-4-yl)oxy)acetamido)octyl)amino)-2-oxoethyl)(methyl)amino)pyridin-4-yl)phenyl)thiazol-2-yl)amino)-2-oxoethyl)-5-methyl-1-(methylsulfonyl)-1H-pyrrole-3-carboxamide], the DC50 [1] was over 10 µM, the “BRM HiBit Degradation Maximum measured” value [1] was “C (‘C’ = Maximum degradation <50%)” and the DC50 [2] was over 10 µM. For the same compound, the Dmax [2] was under 50%.
With `CS(=O)(=O)n1ccc(C(=O)NCC(=O)Nc2nc(-c3cccc(-c4ccnc(C5(C(=O)N6CCN(c7ccc8c(c7)C(=O)N(C7CCC(=O)NC7=O)C8=O)CC6)CC5)c4)c3)cs2)c1` (stereo not shown) [Compound 132, N-(4-[3-[2-(1-[4-[2-(2,6-dioxopiperidin-3-yl)-1,3-dioxoisoindol-5-yl]piperazine-1-carbonyl]cyclopropyl)pyridin-4-yl]phenyl]-1,3-thiazol-2-yl)-2-[(1-methanesulfonylpyrrol-3-yl)formamido]acetamide] the DC50 [1] was over 10 µM, the “BRM HiBit Degradation Maximum measured” value [1] was “C (‘C’ = Maximum degradation <50%)” and the DC50 [2] was over 10 µM. For the same compound, the Dmax [2] was under 50%.
